Experimental findings from ChEMBL document CHEMBL1201862, “PubChem BioAssay data set” (2004) are described below.

The source made the active and inactive calls.

For one data set, the target named is Cytochrome P450 2D6 (Homo sapiens, UniProt P10635).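 Note: CYP2D6 member of a cytochrome P450 panel assay.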
The next data set concerns the target Cytochrome P450 2C19 (Homo sapiens, UniProt P33261). Kind of data set: Cytochrome panel assay with activity outcomes. Panel member name: p450-cyp2c19 Compounds with AC50 equal or less than 10 uM are considered active. The format is functional.
In data set [1] the target is Glyceraldehyde-3-phosphate dehydrogenase (Homo sapiens, UniProt P04406).
Sequence of Glyceraldehyde-3-phosphate dehydrogenase (P04406 whole entry): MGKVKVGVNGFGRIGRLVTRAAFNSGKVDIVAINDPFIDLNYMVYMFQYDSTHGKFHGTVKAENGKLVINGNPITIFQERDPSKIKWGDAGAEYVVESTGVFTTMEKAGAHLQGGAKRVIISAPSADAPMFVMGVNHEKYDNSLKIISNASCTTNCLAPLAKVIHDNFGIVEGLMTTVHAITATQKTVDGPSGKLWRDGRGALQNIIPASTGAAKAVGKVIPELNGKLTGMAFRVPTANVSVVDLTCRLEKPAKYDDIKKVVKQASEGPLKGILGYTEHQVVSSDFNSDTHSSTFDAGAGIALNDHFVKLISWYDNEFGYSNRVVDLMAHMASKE
Data set [2] concerns the target Alkaline phosphatase, placental type (Homo sapiens, UniProt P05187). Kind of data set: PLAP enzyme inhibitors, confirmation, biochemical, luminescence (AID 1512). It is filed as functional.
Data set [3] addresses T1, Alkaline phosphatase, tissue-nonspecific isozyme (Homo sapiens, UniProt P05186).
T1 sequence (P05186 whole entry): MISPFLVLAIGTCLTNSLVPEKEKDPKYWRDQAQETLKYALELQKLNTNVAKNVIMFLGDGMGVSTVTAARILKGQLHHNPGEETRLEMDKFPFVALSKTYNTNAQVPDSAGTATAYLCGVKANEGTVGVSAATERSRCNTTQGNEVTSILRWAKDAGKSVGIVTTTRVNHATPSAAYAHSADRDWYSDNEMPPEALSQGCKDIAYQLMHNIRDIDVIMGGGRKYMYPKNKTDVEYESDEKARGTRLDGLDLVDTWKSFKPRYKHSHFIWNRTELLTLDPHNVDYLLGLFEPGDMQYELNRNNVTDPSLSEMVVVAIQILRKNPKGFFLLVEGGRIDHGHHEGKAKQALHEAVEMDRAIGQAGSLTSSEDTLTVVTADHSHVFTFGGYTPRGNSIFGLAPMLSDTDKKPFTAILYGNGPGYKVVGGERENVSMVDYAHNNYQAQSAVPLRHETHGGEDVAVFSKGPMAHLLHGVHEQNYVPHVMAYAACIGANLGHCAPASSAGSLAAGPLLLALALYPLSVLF
Kind of data set: human TNAP enzyme inhibitors, SAR follow-up, biochemical, luminescent, dose response (AID 1056).

The target in data set [4] is T2, SUMO-activating enzyme (Homo sapiens, UniProt Q9UBT2). Kind of data set: SUMOylation inhibitor hit validation, confirmation, SUMOylation inhibitor project, biochemical, AlphaScreen (AID 2018). The format is functional.
T2 sequence (Q9UBE0 whole entry): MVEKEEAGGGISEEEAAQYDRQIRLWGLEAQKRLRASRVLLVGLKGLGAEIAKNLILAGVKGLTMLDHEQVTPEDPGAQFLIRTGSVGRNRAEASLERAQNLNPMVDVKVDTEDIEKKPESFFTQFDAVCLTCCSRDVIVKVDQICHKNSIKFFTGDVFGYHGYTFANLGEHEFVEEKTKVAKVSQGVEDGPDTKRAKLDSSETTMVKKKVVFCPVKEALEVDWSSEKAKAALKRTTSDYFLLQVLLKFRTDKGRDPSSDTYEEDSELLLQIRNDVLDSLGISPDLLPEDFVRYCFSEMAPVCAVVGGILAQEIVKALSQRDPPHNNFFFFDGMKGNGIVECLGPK
T2 sequence (Q9UBT2 whole entry): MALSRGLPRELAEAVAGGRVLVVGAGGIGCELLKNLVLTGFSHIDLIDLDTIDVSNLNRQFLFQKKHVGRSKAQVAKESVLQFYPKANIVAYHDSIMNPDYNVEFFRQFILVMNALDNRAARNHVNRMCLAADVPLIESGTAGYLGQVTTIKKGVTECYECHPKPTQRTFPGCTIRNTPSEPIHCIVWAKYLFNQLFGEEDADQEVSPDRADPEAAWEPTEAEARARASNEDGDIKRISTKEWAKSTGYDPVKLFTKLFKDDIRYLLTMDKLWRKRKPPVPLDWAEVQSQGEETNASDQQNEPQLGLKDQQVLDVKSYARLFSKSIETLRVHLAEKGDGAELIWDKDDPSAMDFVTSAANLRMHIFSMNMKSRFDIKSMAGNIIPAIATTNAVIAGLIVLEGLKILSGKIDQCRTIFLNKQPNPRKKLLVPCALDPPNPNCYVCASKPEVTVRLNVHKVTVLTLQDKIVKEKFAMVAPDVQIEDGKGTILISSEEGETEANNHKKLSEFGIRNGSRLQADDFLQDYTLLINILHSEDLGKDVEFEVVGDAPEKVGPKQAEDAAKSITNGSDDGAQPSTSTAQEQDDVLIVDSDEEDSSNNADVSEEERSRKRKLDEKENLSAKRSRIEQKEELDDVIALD
Data set [5] deals with T2, SUMO-activating enzyme. Kind of data set: inhibitors of in vitro SUMOylation cascade, primary screen, biochemical, HTRF, uHTS (AID 2006). The format is protein-complex assay.
In data set [6] the target is T3, Histone-lysine N-methyltransferase NSD2 (Homo sapiens, UniProt O96028).
T3 sequence (O96028 whole entry): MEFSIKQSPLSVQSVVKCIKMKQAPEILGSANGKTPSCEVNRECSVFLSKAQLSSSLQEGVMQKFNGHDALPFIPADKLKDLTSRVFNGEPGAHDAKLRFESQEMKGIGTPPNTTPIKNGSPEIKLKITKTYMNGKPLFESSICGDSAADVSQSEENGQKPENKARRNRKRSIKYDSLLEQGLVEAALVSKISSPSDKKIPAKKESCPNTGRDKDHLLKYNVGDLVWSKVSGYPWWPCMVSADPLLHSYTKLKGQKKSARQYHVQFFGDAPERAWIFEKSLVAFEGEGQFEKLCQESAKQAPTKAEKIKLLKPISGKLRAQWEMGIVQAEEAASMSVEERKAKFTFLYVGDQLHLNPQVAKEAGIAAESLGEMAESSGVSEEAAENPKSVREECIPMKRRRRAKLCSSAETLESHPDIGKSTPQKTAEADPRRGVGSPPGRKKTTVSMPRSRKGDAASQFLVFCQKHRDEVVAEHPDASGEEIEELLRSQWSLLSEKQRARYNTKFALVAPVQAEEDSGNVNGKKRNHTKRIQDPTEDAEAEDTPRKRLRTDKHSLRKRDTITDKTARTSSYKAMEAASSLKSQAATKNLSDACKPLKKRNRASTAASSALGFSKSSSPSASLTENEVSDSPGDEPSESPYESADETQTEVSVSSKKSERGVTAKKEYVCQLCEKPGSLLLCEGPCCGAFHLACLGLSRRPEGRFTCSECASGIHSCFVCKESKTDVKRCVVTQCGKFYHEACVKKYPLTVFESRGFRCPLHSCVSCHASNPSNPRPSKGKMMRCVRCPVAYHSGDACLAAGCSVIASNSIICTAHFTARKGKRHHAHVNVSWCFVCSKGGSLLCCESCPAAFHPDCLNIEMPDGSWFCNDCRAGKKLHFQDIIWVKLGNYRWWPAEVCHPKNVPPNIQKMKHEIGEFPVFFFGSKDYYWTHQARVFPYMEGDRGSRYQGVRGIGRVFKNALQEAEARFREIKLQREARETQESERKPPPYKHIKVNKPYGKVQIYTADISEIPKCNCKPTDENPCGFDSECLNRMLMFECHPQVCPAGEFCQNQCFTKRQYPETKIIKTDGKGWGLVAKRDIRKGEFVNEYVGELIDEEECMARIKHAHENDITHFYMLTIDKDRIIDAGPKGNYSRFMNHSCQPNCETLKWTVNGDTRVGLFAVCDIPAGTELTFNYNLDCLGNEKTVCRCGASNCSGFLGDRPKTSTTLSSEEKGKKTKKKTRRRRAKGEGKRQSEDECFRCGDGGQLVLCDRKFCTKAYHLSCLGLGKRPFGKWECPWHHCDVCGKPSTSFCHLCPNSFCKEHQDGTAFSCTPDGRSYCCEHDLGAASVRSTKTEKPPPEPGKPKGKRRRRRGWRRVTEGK
It is filed as biochemical.

In data set [7] the target is Induced myeloid leukemia cell differentiation protein Mcl-1 (Homo sapiens, UniProt Q07820). It is filed as functional.
Sequence of Induced myeloid leukemia cell differentiation protein Mcl-1 (Q07820 whole entry): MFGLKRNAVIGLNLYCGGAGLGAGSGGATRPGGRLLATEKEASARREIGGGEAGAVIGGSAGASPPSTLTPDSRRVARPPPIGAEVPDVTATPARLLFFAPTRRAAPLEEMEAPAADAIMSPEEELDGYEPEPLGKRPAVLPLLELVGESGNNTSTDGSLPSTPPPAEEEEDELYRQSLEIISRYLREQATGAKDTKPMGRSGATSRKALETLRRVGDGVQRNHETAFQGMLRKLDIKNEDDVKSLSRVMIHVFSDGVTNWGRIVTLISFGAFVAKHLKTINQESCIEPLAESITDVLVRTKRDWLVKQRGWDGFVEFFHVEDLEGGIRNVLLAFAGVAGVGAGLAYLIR
A short description of the next data set: cells. The format is functional.
The target in data set [8] is T4, Rac GTPase-activating protein 1 (Homo sapiens, UniProt Q9H0H5).
T4 sequence (Q9H0H5 whole entry): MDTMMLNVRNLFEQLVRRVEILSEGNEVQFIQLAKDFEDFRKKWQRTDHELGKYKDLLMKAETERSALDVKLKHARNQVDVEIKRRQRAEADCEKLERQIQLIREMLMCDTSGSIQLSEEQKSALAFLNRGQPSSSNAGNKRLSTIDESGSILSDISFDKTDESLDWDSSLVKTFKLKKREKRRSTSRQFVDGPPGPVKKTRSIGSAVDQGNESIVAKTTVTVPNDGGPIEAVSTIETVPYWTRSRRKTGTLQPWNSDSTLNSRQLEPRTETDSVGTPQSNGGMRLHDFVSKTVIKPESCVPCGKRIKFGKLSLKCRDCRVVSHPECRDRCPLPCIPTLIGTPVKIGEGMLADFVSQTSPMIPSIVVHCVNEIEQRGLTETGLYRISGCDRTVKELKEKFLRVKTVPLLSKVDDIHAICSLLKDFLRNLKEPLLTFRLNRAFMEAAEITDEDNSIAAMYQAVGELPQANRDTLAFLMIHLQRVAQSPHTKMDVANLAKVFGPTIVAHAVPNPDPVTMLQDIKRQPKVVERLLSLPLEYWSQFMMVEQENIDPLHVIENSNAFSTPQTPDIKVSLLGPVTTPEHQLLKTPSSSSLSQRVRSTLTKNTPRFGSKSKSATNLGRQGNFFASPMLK
Kind of data set: MgcRacGAP GTPase-activating activity inhibitors, confirmation, biochemical, ADP Hunter fluorescence, primary and confirmatory (AID 624330). It is filed as functional.

A short description of data set [9]: Vero E6 cell cytotoxicity, dose response, cytotoxicity control for non-replicating M. tuberculosis project, secondary assay (AID 492998). The format is functional, VeroE6. Conditions: Vero C1008.
A further data set concerns the target Cytochrome P450 2C9 (Homo sapiens, UniProt P11712).
The target of another data set is T5, Cytochrome P450 1A2 (Homo sapiens, UniProt P05177).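 Note: PubChem cytochrome P450 panel assay, CYP1A2 panel member.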
T5 sequence (P05177 whole entry): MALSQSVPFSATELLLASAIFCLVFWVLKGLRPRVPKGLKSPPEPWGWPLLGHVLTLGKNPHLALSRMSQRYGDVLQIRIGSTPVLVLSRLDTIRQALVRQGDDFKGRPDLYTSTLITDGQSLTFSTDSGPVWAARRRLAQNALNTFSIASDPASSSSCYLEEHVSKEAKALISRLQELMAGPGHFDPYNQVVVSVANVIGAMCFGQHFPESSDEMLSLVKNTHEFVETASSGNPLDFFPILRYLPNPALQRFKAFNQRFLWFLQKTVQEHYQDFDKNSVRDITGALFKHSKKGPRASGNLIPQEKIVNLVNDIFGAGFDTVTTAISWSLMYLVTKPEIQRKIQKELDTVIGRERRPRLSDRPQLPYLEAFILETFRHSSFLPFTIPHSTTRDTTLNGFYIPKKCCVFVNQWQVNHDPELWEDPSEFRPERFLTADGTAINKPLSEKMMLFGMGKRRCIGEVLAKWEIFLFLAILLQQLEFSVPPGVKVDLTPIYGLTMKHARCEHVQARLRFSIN

A further data set has as its target T6, Streptokinase A (Streptococcus pyogenes serotype M1, UniProt P10520).
T6 sequence (P10520 whole entry): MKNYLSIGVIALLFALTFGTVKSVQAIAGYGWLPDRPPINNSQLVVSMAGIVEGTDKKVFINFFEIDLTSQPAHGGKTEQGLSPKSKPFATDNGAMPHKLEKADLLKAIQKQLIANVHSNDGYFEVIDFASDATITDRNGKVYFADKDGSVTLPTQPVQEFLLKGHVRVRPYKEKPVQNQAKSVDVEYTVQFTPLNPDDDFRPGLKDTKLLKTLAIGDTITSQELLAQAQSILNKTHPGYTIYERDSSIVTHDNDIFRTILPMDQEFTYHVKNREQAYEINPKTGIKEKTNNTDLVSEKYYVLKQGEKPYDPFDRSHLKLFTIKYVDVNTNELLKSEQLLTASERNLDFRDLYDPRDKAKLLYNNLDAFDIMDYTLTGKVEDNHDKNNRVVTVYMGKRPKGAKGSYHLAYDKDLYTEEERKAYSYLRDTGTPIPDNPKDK
Briefly: S. pyogenes streptokinase expression inhibitors, potency, dose response, plasminogen activation absorbance, OD405 (AID 1914).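 Note: secreted streptokinase activity via plasminogen activation per viability signal from cell pellet.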 The format is functional, Streptococcus pyogenes M1 GAS.

Data set [10] can be described thus: THP-1 cell cytotoxicity, dose response, cytotoxicity control for non-replicating M. tuberculosis project (AID 489025). It is filed as functional.
The test system of data set [11] is Streptococcus sp. 'group A'. Kind of data set: growth inhibition of control SK(-) GAS strain, dose response, counter-screen for streptokinase expression inhibitor project, luminescence, kanamycin, BacTiterGlo, confirmation (AID 1900). The format is functional, organism-based.
In the next data set the test system is Streptococcus. Briefly: Group A Streptococcus viability loss, dose response, counter-screen for streptokinase expression inhibitor project, luminescence, BacTiterGlo (AID 1915).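 Note: potency for reduction of bacterial viability or growth.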 It is filed as functional, organism-based.

Sequence of Cytochrome P450 2D6 (P10635 whole entry): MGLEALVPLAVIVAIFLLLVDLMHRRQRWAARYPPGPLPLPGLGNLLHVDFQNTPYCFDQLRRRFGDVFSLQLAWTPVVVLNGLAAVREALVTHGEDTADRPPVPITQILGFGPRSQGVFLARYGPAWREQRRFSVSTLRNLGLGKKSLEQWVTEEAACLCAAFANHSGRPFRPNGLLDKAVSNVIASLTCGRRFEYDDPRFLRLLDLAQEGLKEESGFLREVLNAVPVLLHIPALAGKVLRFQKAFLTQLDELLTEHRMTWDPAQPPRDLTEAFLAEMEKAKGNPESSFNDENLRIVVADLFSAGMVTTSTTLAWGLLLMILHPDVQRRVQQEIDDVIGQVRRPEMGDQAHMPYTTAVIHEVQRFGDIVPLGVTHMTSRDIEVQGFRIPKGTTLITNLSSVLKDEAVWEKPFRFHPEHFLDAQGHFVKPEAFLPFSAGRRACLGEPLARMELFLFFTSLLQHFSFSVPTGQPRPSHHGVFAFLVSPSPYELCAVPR
Sequence of Alkaline phosphatase, placental type (P05187 whole entry): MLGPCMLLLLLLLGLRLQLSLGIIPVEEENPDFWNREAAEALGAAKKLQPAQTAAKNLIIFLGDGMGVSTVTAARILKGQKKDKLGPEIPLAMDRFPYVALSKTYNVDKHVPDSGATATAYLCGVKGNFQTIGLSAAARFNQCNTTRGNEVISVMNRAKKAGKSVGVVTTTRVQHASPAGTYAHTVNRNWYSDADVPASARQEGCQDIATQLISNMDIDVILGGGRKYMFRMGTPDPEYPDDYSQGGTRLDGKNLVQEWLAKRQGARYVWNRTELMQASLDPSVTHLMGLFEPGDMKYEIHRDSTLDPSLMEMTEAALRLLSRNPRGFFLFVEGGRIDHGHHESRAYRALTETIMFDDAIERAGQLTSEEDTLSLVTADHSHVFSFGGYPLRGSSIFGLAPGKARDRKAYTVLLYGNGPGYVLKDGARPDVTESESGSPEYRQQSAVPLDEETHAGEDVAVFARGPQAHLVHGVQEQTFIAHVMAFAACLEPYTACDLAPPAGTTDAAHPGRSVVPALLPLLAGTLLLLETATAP
Sequence of Cytochrome P450 2C19 (P33261 whole entry): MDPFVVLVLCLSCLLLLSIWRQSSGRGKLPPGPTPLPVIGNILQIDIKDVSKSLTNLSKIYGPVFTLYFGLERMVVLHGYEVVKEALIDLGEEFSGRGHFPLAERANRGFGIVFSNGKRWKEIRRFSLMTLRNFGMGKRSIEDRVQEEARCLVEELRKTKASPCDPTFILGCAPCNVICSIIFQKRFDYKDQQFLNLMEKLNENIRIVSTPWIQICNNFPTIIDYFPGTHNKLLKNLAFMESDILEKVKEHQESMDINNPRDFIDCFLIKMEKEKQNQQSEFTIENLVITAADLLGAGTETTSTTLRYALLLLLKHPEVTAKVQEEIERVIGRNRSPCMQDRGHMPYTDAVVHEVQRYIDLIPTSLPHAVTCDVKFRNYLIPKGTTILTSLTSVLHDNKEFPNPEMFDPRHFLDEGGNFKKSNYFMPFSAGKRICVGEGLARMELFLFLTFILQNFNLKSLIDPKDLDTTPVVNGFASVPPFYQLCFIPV
Sequence of Cytochrome P450 2C9 (P11712 whole entry): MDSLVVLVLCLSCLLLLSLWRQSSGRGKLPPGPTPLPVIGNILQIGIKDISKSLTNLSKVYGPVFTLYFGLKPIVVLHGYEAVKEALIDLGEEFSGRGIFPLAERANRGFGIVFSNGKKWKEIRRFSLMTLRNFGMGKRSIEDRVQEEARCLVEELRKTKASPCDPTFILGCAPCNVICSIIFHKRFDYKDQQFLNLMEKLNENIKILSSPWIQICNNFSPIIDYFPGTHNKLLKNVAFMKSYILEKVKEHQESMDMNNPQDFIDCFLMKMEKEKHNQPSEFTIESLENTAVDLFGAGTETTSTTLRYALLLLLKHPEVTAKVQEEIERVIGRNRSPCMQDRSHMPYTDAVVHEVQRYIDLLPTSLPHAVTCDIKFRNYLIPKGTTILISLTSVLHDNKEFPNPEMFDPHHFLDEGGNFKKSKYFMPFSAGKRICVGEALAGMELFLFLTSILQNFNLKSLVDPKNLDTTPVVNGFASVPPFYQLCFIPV

Take `O=C(O)c1nn(-c2ccccc2)nc1-c1nn(-c2ccccc2)nc1C(=O)O`: at Cytochrome P450 2D6, the AC50 entry is reported as “inconclusive”.
For `C[C@@H](c1ccccc1)N1C(=O)[C@H]2[C@@H]3[C@H](O)C=CC(=O)[C@H]3CC[C@H]2C1=O`, the AC50 entry on Cytochrome P450 2C19 and at Cytochrome P450 2D6 was “inconclusive” each time.
On to `COc1ccc(-c2nc3c4cnn(C)c4ncn3n2)cc1`, for which the IC50 in data set [1] is > 100 µM (not active); in data set [2] it was > 100 µM (inactive); in data set [3], > 100 µM (inactive).
Take `COc1ccc(C(=O)Nc2ccc(-c3nnn(CC(=O)N4CCN(C(=O)c5ccco5)CC4)n3)cc2)cc1`: the concentration for half-maximal inhibition (IC50) at SUMO-activating enzyme [4] is 13 µM (active); on SUMO-activating enzyme [5], 30 µM (active).
Take `NC(=O)c1ccc(-n2nnnc2SCC(=O)c2ccc(O)c(O)c2)cc1`: in [6], the AC50 is > 20 µM (inactive). For the same compound, the concentration for half-maximal inhibition (IC50) was 1.76 µM (active) in data set [2] and 3.48 µM (active) in [3].
Regarding `CCN(CC)c1ccc(NC(=O)CSc2nc(C3CC3)nc3ccccc23)cc1C`, the figures for the IC50 at SUMO-activating enzyme [4] and on SUMO-activating enzyme [5] were 7.43 µM (active) and 27 µM (active), respectively.
In the case of `COc1cc(NCCC(=O)c2cccs2)c(OC)cc1Cl`, the results for the half-maximal inhibitory concentration (IC50) (in data set [7]; in the data set “cells”; in [8]) were 4.38 µM (not active), 8.46 µM (active) and 58.1 µM (active), respectively. Further, the cytotoxic concentration (CC50) in [9] was > 20 µM (active).
Take `Cc1cc(C)nc(Nc2n[nH]c(-c3cccc4ccccc34)n2)n1`: the half-maximal activity concentration (AC50) is 17.8 µM (inconclusive) at Cytochrome P450 2C19 (read-out: AC50) and “inconclusive” on Cytochrome P450 2D6.
Consider `COc1ccc(/C=N/C(CO)C(O)c2ccc([N+](=O)[O-])cc2)cc1` (stereo not given), for which the AC50 was 2.51 µM (inconclusive) on Cytochrome P450 2C9, “inconclusive” at Cytochrome P450 2D6 and 20 µM (inconclusive) on Cytochrome P450 1A2.
Regarding `CCCCCC/C(=N/O)c1ccccn1`, the concentration giving a half-maximal response (EC50) at Streptokinase A was > 150 µM (not active); in data set [11], 7.92 µM (active); with Streptococcus, 40 µM (active). In the data set “cells”, the IC50 was 6.74 µM (active). For the same compound, the CC50 is 20.2 µM (active) in [10] and 15.2 µM (active) in data set [9].
As for `O=C(c1cc(-c2ccc(Cl)cc2Cl)n[nH]1)N1CCN(CCO)CC1`, the IC50 in [1] is > 100 µM (not active); in data set [2], > 100 µM (inactive).
